Results from patent US20190083563A1 (priority 2014, published 2019).
Converted amounts (≈) assume the structure as drawn.

Key:
influenza virus H1N1 [1] = format: cell-based, influenza A virus
influenza virus H1N1 [2] = assay: Investigation on cell binding of influenza virus (virus and sample mixed, 4° C., MTT cell viability); format: cell-based, influenza A virus
influenza B virus = assay: microbe, parasite or virus in culture; format: cell-based
influenza A virus H3N2 = assay: microbe, parasite or virus in culture; format: cell-based
in vitro = conditions: dog
influenza A virus H1N1 = assay: microbe, parasite or virus in culture; format: cell-based
influenza A virus H5N1 = assay: microbe, parasite or virus in culture; format: cell-based

## CCOC(=O)C1=C[C@@H](OC(CC)CC)[C@H](NC(C)=O)[C@@H](N)C1 [Tamiflu]
Influenza virus H1N1 [1]
  CPE of cells, virus preventive effect: all the cells treated with Tamiflu were dead
  observing the cells using a microscope, virus preventive effect: infected cell state
Influenza virus H1N1 [2]
  antiviral effect in virus binding test: no antiviral effect
Influenza B virus; CC50 value divided by the EC50 value
  SI: 81
Influenza B virus; MDCK cells, post-treatment, 48 hours
  EC50: 13.7 µg/mL (≈ 43.9 µM)
Influenza A virus H3N2; H3N2, CC50 value divided by the EC50 value
  SI: 317
Influenza A virus H3N2; Influenza A virus, H3N2, MDCK cells, post-treatment, 48 hours
  EC50: 3.5 µg/mL (≈ 11.2 µM)
In vitro
  CC50: 1110 µg/mL (≈ 3560 µM)
Influenza A virus H1N1
  observing the cells by a microscope, post-treatment: many cells were infected and dead
Influenza A virus H1N1; H1N1, CC50 value divided by the EC50 value
  SI: 317
Influenza A virus H1N1; Influenza A virus, H1N1, MDCK cells, post-treatment, 48 hours
  EC50: 3.5 µg/mL (≈ 11.2 µM)
Influenza A virus H5N1; H5N1, CC50 value divided by the EC50 value
  SI: 740
Influenza A virus H5N1; Influenza A virus, H5N1, MDCK, 48 h
  EC50: 1.5 µg/mL (≈ 4.8 µM)
